Assays:
[1] = biological target: T1, Amine oxidase [flavin-containing] A (Homo sapiens, UniProt P21397); assay: Inhibition of recombinant human MAO-A using kynuramine as substrate incubated for 10 mins followed by substrate addition and measured for 20 mins by Fluorescence microplate reader assay
T1 sequence (P21397 whole entry): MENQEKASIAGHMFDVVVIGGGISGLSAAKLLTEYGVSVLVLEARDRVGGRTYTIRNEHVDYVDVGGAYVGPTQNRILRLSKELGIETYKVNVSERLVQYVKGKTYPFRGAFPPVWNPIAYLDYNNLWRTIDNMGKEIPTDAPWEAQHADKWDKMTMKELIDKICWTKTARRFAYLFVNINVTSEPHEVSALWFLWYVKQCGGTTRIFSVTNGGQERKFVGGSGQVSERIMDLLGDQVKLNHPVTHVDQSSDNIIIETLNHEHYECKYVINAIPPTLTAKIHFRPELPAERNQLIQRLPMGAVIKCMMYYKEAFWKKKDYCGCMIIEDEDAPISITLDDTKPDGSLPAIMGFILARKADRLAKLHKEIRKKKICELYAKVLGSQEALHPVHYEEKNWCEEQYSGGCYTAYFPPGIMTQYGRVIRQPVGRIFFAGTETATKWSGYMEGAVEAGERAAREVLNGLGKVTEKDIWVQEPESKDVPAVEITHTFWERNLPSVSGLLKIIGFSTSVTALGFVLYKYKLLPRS

[2] = biological target: T2, Amine oxidase [flavin-containing] B (Homo sapiens, UniProt P27338); assay: Inhibition of recombinant human MAO-B expressed in insect cells using kynuramine as substrate incubated for 20 mins by Amplex Red reagent based fluorometric method
T2 sequence (P27338 whole entry): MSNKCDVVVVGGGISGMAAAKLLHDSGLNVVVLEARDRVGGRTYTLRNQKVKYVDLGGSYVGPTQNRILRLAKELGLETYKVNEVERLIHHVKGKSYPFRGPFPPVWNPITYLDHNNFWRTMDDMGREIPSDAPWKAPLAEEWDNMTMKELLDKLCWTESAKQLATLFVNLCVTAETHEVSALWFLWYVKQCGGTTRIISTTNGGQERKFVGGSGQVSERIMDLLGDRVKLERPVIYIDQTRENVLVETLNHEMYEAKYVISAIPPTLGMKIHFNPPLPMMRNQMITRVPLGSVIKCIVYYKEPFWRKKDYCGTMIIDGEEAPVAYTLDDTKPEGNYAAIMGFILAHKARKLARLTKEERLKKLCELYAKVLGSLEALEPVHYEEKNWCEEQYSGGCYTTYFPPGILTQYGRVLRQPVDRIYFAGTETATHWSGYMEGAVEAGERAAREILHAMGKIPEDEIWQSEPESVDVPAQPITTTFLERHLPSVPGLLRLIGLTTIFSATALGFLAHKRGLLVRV

[3] = biological target: T1, Amine oxidase [flavin-containing] A; assay: Inhibition of recombinant human MAO-A expressed in insect cells using kynuramine as substrate incubated for 20 mins by Amplex Red reagent based fluorometric method
Homo sapiens = organism: Homo sapiens; assay: Selectivity index, ratio of IC50 for inhibition of recombinant human MAO-B to IC50 for inhibition of recombinant human MAO-A
[4] = biological target: Cholinesterase (Equus caballus) (UniProt P81908); assay: Inhibition of horse serum BuChE using butyrylthiocholine iodide as substrate at 10 uM incubated for 6 mins followed by substrate addition by DTNB reagent based Ellman's method
Sequence of Cholinesterase (Equus caballus) (P81908 whole entry): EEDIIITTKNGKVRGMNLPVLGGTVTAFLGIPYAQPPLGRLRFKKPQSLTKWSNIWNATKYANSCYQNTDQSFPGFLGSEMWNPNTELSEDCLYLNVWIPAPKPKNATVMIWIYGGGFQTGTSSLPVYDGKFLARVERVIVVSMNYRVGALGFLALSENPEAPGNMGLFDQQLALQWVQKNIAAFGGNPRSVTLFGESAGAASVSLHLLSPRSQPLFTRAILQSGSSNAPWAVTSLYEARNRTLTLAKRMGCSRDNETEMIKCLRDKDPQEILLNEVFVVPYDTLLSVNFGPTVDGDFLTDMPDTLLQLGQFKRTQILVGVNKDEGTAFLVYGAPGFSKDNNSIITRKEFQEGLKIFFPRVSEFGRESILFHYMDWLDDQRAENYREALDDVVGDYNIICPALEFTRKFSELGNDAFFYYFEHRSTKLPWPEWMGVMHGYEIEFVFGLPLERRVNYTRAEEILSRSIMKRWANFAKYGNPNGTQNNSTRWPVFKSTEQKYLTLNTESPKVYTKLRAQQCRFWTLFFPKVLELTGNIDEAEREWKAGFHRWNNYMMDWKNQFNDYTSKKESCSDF

Acetylcholinesterase [5] = biological target: T3, Acetylcholinesterase (Electrophorus electricus, UniProt O42275); assay: Inhibition of electric eel AChE using acetylthiocholine iodide as substrate incubated for 6 mins followed by substrate addition by DTNB reagent based Ellman's method
T3 sequence (O42275 whole entry): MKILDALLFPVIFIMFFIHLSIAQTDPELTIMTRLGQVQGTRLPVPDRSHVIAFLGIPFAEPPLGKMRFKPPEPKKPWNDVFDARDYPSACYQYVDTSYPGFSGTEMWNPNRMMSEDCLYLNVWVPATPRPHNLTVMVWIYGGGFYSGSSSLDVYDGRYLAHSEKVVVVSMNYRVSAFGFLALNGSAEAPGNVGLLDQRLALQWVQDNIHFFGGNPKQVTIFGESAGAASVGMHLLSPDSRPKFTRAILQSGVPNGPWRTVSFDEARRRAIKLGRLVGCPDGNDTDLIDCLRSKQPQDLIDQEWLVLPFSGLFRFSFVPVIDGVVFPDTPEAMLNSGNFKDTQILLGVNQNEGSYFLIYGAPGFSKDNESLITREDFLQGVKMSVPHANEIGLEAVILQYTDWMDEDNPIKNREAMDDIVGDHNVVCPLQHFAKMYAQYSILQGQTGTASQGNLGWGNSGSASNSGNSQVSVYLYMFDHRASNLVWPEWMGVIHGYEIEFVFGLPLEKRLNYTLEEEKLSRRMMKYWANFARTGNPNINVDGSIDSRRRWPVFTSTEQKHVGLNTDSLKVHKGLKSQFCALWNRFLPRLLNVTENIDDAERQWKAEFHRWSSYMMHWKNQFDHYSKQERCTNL

[6] = biological target: T2, Amine oxidase [flavin-containing] B; assay: Inhibition of recombinant human MAO-B using p-tyramine as substrate incubated for 15 mins followed by substrate addition and measured upto 20 mins by Amplex Red assay
[7] = biological target: T1, Amine oxidase [flavin-containing] A; assay: Inhibition of recombinant human MAO-A using p-tyramine as substrate incubated for 15 mins followed by substrate addition and measured for 15 to 20 mins by Amplex Red assay
[8] = biological target: T2, Amine oxidase [flavin-containing] B; assay: Competitive inhibition of recombinant human MAO-B using kynuramine as substrate incubated for 20 mins by Lineweaver-Burk plot analysis
[9] = biological target: T1, Amine oxidase [flavin-containing] A; assay: Inhibition of recombinant human MAO-A using kynuramine as substrate incubated for 20 mins by fluorescence spectrophotometric assay
[10] = biological target: T2, Amine oxidase [flavin-containing] B; assay: Inhibition of recombinant human MAO-B using kynuramine as substrate incubated for 20 mins by fluorescence spectrophotometric assay
[11] = biological target: T1, Amine oxidase [flavin-containing] A; assay: Inhibition of MAO-A (unknown origin) using kynuramine as substrate preincubated for 10 mins followed by substrate addition and measured after 20 mins by fluorescence microplate reader assay
[12] = biological target: T2, Amine oxidase [flavin-containing] B; assay: Inhibition of MAO-B (unknown origin) using kynuramine as substrate preincubated for 10 mins followed by substrate addition and measured after 20 mins by fluorescence microplate reader assay
Acetylcholinesterase [13] = biological target: T3, Acetylcholinesterase; assay: Inhibition of electric eel AChE using acetylthiocholine iodide as substrate preincubated for 5 mins followed by substrate addition and measured for 20 mins by DTNB reagent based Ellman's method
[14] = biological target: T4, Amine oxidase [flavin-containing] B (Rattus norvegicus, UniProt P19643); assay: Inhibition of MAO-B expressed in Wistar rat liver preincubated for 30 mins followed by 4-(trifluoromethyl) benzylamine addition and measured after 90 mins by microplate reader analysis; assay type: tissue-based
T4 sequence (P19643 whole entry): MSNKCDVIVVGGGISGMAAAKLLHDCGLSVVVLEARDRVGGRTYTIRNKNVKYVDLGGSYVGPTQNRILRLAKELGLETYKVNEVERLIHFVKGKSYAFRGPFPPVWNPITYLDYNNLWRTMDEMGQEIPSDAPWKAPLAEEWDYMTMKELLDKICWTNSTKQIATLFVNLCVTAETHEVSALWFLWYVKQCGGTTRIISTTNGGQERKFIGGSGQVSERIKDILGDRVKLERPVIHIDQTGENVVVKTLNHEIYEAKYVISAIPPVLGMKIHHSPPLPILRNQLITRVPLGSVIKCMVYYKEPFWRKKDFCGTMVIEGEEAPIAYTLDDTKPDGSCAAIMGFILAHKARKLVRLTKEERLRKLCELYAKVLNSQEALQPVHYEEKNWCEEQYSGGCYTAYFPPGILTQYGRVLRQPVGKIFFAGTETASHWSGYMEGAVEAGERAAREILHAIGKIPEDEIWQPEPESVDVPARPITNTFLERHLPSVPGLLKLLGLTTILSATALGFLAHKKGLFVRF

Cholinesterase = Cholinesterase (Equus caballus, UniProt P81908); assay: Inhibition of horse serum BuChE using butyrylthiocholine iodide as substrate preincubated for 5 mins followed by substrate addition and measured for 20 mins by DTNB reagent based Ellman's method
Sequence of Cholinesterase (P81908 whole entry): as the sequence (P81908 whole entry) above

[15] = Oral bioavailability in ICR mouse at 10 mg/kg and measured after 24 hrs by HPLC analysis; assay type: ADME, organism-based; details: in vivo
[16] = biological target: T2, Amine oxidase [flavin-containing] B; assay: Inhibition of human MAO-B using benzylamine as substrate preincubated for 15 mins followed by substrate addition and measured after 15 mins by fluorescence assay
Acetylcholinesterase [17] = biological target: T5, Acetylcholinesterase (Mus musculus, UniProt P21836); assay: Inhibition of mouse AChE using acetylthiocholine iodide as substrate incubated for 20 mins by DTNB reagent based Ellman's method
T5 sequence (P21836 whole entry): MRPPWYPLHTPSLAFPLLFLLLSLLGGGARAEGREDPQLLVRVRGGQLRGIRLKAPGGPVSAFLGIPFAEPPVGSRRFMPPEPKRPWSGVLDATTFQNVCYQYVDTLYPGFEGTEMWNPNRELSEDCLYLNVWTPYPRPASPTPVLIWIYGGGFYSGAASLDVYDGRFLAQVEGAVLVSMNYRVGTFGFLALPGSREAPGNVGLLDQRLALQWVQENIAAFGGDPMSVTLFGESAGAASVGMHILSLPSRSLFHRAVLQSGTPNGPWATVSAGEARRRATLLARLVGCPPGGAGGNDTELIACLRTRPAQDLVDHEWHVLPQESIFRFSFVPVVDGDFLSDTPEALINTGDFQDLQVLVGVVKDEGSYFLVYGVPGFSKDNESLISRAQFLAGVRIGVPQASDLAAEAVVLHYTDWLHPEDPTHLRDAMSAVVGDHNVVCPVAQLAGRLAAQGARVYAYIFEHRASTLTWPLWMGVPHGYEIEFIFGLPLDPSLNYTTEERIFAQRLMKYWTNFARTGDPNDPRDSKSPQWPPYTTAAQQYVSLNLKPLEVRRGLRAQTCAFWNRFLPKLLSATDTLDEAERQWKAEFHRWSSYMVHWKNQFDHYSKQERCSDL

[18] = biological target: T2, Amine oxidase [flavin-containing] B; assay: Inhibition of recombinant human MAO-B expressed in baculovirus-infected BTI insect cells using p-tyramine as substrate incubated for 45 mins by fluorescence assay
[19] = biological target: T2, Amine oxidase [flavin-containing] B; assay: Inhibition of MAO-B (unknown origin) using as tyramine as substrate by Ampliflu red reagent based fluorometric method
[20] = biological target: T1, Amine oxidase [flavin-containing] A; assay: Inhibition of recombinant human MAO-A using p-tyramine as substrate incubated for 10 mins followed by substrate addition and measured 20 mins by fluorescence assay
[21] = biological target: T2, Amine oxidase [flavin-containing] B; assay: Inhibition of recombinant human MAO-B using p-tyramine as substrate incubated for 10 mins followed by substrate addition and measured 20 mins by fluorescence assay
[22] = biological target: T2, Amine oxidase [flavin-containing] B; assay: Inhibition of human MAO-B
[23] = biological target: T2, Amine oxidase [flavin-containing] B; assay: Inhibition of MAO-B (unknown origin) using benzylamine as substrate by spectrophotometric assay
[24] = biological target: T1, Amine oxidase [flavin-containing] A; assay: Inhibition of MAO-A (unknown origin) using kynuramine as substrate by spectrophotometric assay
[25] = biological target: Acetylcholinesterase (Electrophorus electricus) (UniProt O42275); assay: Inhibition of electric eel AChE using acetylthiocholine iodide as substrate at 1 uM preincubated for 5 mins followed by substrate addition and measured for 20 mins by DTNB reagent based Ellman's method
Sequence of Acetylcholinesterase (Electrophorus electricus) (O42275 24-633 limits assumed): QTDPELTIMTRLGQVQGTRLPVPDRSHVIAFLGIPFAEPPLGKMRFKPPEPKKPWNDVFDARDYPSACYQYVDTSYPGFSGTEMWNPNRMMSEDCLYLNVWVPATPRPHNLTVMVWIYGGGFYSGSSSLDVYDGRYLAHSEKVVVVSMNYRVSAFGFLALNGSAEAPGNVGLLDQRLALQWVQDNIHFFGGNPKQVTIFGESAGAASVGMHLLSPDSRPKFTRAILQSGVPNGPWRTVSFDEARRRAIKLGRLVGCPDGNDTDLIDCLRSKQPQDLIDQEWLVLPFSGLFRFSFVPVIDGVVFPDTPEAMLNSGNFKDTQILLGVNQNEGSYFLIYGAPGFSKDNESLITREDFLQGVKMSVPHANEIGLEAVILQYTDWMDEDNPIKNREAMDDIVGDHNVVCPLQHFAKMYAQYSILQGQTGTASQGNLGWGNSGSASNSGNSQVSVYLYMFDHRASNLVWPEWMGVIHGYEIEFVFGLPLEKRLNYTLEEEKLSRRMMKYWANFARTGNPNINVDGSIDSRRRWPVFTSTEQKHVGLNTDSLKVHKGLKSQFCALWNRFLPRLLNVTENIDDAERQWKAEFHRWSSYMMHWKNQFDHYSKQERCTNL

With `CCOc1ccc([N+](=O)[O-])c(N/N=C/c2ccccn2)n1` the IC50 [1] was 9.52 µM.
For `O=c1c(O)c(-c2cc(O)c(O)c(O)c2)oc2cc(O)cc(O)c12` [MYRICETIN], the IC50 [1] was 9.93 µM.
`CCCCOc1ccc(C2=NN(C(N)=S)C(c3ccccc3)C2)cc1` (stereo unspecified) showed an IC50 [2] of 380 nM, an IC50 [3] of 3.63 µM and a Ratio IC50 (Homo sapiens) of 9.55.
Compound `Cc1c(Cl)c(=O)oc2cc(OCCCSC(=S)N3C(C)CCCC3C)ccc12` (stereo unspecified) has an inhibition [4] of 23.3%, an IC50 (Acetylcholinesterase [5]) of 44 nM and an IC50 [6] of 101 nM. For the same compound, the IC50 [7] was 5.85 µM.
For `CCOc1ccc([N+](=O)[O-])c(N/N=C/c2cccn2C)n1`, the IC50 [1] was 6.12 µM.
For `O=C1Oc2ccccc2C(=O)/C1=C/NCc1ccccc1`, the Ki [8] was 94 µM, the IC50 [9] was 77.9 µM and the IC50 [10] was 638 nM.
With `CCOc1ccc([N+](=O)[O-])c(N/N=C/c2ccc(O)cc2)n1` the IC50 [11] was 6.25 µM and the IC50 [12] was 9.3 µM.
Work on `O=c1oc2c(O)c(O)ccc2cc1-c1ccc(O)c(O)c1` yielded an IC50 (Acetylcholinesterase [13]) of 3.04 µM, an IC50 [14] of 27 µM and an IC50 (Cholinesterase) of 8.37 µM.
In the case of `C#CCNCc1ccc2c(c1)ncn2-c1cc(NC(=S)NCC)ncn1`, the bioavailability [15] is reported as 45.5%, the IC50 [16] is reported as 2120 nM and the IC50 (Acetylcholinesterase [17]) is reported as 32 nM.
For `Cn1ccc2cc(C(=S)Nc3ccc(F)cc3)ccc21`, the IC50 [18] was 28 nM.
With `CCOc1ccc([N+](=O)[O-])c(N/N=C/c2ccc(C(F)(F)F)cc2)n1` the IC50 [1] was 13.1 µM.
With `Cc1c(/N=C/c2ccc(O)cc2)c(=O)n(-c2ccccc2)n1C` the IC50 [19] was 114 nM.
Compound `CN(C)c1ccc(/C=C/C(=O)c2cc(Cl)sc2Cl)cc1` has an IC50 [20] of 1990 nM, an IC50 [21] of 40 nM and a Ratio IC50 (Homo sapiens) of 0.02.
With `O=C1CCC2(O)c3c(ccc(O)c31)-c1ccc(O)c3c1C2C1OC1C3=O` (stereo unspecified) the IC50 [22] was over 80 µM.
Compound `O=C(/C=C/c1cccc(F)c1)c1ccc(N2CCOCC2)cc1` has an IC50 [23] of 87 nM and an IC50 [24] of 45 µM.
With `O=c1ccc2ccc(OCCN3CCCCC3)cc2o1` the inhibition [25] was 30.9%.

— ChEMBL document CHEMBL5230123, “A comprehensive review of monoamine oxidase inhibitors as Anti-Alzheimer's disease agents: A review” (Eur J Med Chem, 2020)
